Patent US20070185211A1, “Crystal forms of cinacalcet HCI and processes for their preparation” (priority 2005, published 2007)

Assay: Crystal form after drying/heating at 50° C. (solid state stability of the polymorph)
Type: physicochemical
Protocol: X-Ray powder diffraction data were obtained using a SCINTAG powder X-Ray diffractometer model X'TRA equipped with a solid state detector and a variable gonimeter. Copper radiation of 1.5418 Å was used. A round standard aluminum sample holder with round zero background, and cavity of 25(diameter)*0.5(dept) mm. Scanning parameters range of: 2-40 deg. 2θ and continuous scan rate of 3 deg./min.
0.62 gr of Cinacalcet HCl was dissolved in Chloroform (6 ml) at room temperature. […] The slurry was stirred at room temperature for 4 minutes. […]

## C[C@@H](NCCCc1cccc(C(F)(F)F)c1)c1cccc2ccccc12.Cl [Cinacalcet HCl crystal form III, (R)-α-methyl-N-[3-[3-(trifluoromethyl)phenyl]propyl]-1-naphthalenemethane amine]
Dried at 50° C. for 24 hours
  crystalline structure after drying: maintained as form III
Heated at 50° C. under vacuum for 22 hours
  crystal form obtained after heating: form I was obtained
